Laboratory results as given in PubChem BioAssay (NCI).
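GI50 = concentration required for 50% inhibition of growth. At the TGI there is no net growth.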

How the values were obtained:
Assay in all cases: NCI anticancer screen, dose series, 384-well format
[1] = test system: RXF 393 renal
[2] = test system: HT29 colon
[3] = test system: SF-295 CNS
[4] = test system: MDA-MB-468 breast
[5] = test system: HCT-116 colon
[6] = test system: LOX IMVI melanoma
[7] = test system: SF-268 CNS
[8] = test system: UACC-62 melanoma
[9] = test system: HCT-15 colon
[10] = test system: NCI-H460 NSCLC
[11] = test system: SF-539 CNS
[12] = test system: BT-549 breast
[13] = test system: MALME-3M melanoma
[14] = test system: OVCAR-4 ovarian
[15] = test system: KM12 colon
[16] = test system: NCI/ADR-RES ovarian
[17] = test system: NCI-H322M lung
[18] = test system: A498 renal
[19] = test system: SK-MEL-5 melanoma
[20] = test system: ACHN renal
[21] = test system: IGROV1 ovarian
[22] = test system: OVCAR-3 ovarian
[23] = test system: NCI-H226 lung
[24] = test system: NCI-H23 lung
[25] = test system: MDA-MB-231 breast
[26] = test system: CAKI-1 renal
[27] = test system: SN12C renal
[28] = test system: A549 NSCLC
[29] = test system: T-47D breast
[30] = test system: M14 melanoma
[31] = test system: MCF7 breast
[32] = test system: UO-31 renal
[33] = test system: PC-3 prostate
[34] = test system: UACC-257 melanoma
[35] = test system: SK-MEL-2 melanoma
[36] = test system: SR leukemia
[37] = test system: COLO 205 colon
[38] = test system: SW-620 colon
[39] = test system: HOP-92 NSCLC
[40] = test system: TK-10 renal
[41] = test system: NCI-H522 lung
[42] = test system: RPMI-8226 leukemia
[43] = test system: HCC-2998 colon
[44] = test system: SNB-19 CNS
[45] = test system: HL-60(TB) leukemia
[46] = test system: EKVX NSCLC
[47] = test system: OVCAR-5 ovarian
[48] = test system: K-562 leukemia
[49] = test system: MDA-MB-435 melanoma
[50] = test system: SK-MEL-28 melanoma
[51] = test system: SK-OV-3 ovarian
[52] = test system: U251 glioblastoma
[53] = test system: MOLT-4 leukemia
[54] = test system: DU-145 prostate
[55] = test system: OVCAR-8 ovarian
[56] = test system: CCRF-CEM leukemia
[57] = test system: SNB-75 CNS
[58] = test system: HOP-62 NSCLC
[59] = test system: 786-0 renal

O=C(NCC(=O)N1CC[C@H](NC2CCC(O)(c3ccc(-c4ncccn4)cn3)CC2)C1)c1cccc(C(F)(F)F)c1 (stereo partly drawn)
GI50 [1]: 23.6 µM
TGI [1]: 63.3 µM
GI50 [2]: > 57.4 µM
TGI [2]: > 100 µM
GI50 [3]: > 96.1 µM
TGI [3]: > 100 µM
GI50 [4]: 17.1 µM
TGI [4]: 59.3 µM
GI50 [5]: 32.1 µM
TGI [5]: > 100 µM
GI50 [6]: 53.6 µM
TGI [6]: > 100 µM
GI50 [7]: > 81.4 µM
TGI [7]: > 100 µM
GI50 [8]: > 47.5 µM
TGI [8]: > 70.8 µM
GI50 [9]: > 66.7 µM
TGI [9]: > 100 µM
GI50 [10]: 38.4 µM
TGI [10]: > 100 µM
GI50 [11]: > 67.3 µM
TGI [11]: > 100 µM
GI50 [12]: 30 µM
TGI [12]: > 100 µM
GI50 [13]: > 56.4 µM
TGI [13]: > 90.9 µM
GI50 [14]: > 60.6 µM
TGI [14]: > 100 µM
GI50 [15]: > 100 µM
TGI [15]: > 100 µM
GI50 [16]: > 100 µM
TGI [16]: > 100 µM
GI50 [17]: > 92.4 µM
TGI [17]: > 100 µM
GI50 [18]: 55.1 µM
TGI [18]: > 100 µM
GI50 [19]: 29.7 µM
TGI [19]: > 52.1 µM
GI50 [20]: > 100 µM
TGI [20]: > 100 µM
GI50 [21]: > 96 µM
TGI [21]: > 100 µM
GI50 [22]: > 81.8 µM
TGI [22]: > 100 µM
GI50 [23]: > 58 µM
TGI [23]: > 100 µM
GI50 [24]: 33.5 µM
TGI [24]: > 88.2 µM
GI50 [25]: 77.6 µM
TGI [25]: > 100 µM
GI50 [26]: 48.1 µM
TGI [26]: > 100 µM
GI50 [27]: > 100 µM
TGI [27]: > 100 µM
GI50 [28]: > 100 µM
TGI [28]: > 100 µM
GI50 [29]: 12.1 µM
TGI [29]: > 69.4 µM
GI50 [30]: > 49.1 µM
TGI [30]: > 73.5 µM
GI50 [31]: > 54.6 µM
TGI [31]: > 100 µM
GI50 [32]: 81.2 µM
TGI [32]: > 100 µM
GI50 [33]: 61.7 µM
TGI [33]: > 100 µM
GI50 [34]: 19.2 µM
TGI [34]: 41.1 µM
GI50 [35]: > 64.4 µM
TGI [35]: > 100 µM
GI50 [36]: 17.4 µM
TGI [36]: 31.5 µM
GI50 [37]: > 87 µM
TGI [37]: > 100 µM
GI50 [38]: > 100 µM
TGI [38]: > 100 µM
GI50 [39]: > 58.5 µM
TGI [39]: > 100 µM
GI50 [40]: > 90 µM
TGI [40]: > 100 µM
GI50 [41]: 65.6 µM
TGI [41]: > 100 µM
GI50 [42]: 20.8 µM
TGI [42]: 74.2 µM
GI50 [43]: 35.7 µM
TGI [43]: > 82.3 µM
GI50 [44]: 97.5 µM
TGI [44]: > 100 µM
GI50 [45]: 30.9 µM
TGI [45]: > 70.2 µM
GI50 [46]: 55.9 µM
TGI [46]: > 100 µM
GI50 [47]: > 100 µM
TGI [47]: > 100 µM
GI50 [48]: 15.4 µM
TGI [48]: 31.5 µM
GI50 [49]: > 100 µM
TGI [49]: > 100 µM
GI50 [50]: > 60 µM
TGI [50]: > 100 µM
GI50 [51]: > 85.7 µM
TGI [51]: > 100 µM
GI50 [52]: 52.5 µM
TGI [52]: > 100 µM
GI50 [53]: 20.9 µM
TGI [53]: 63 µM
GI50 [54]: > 100 µM
TGI [54]: > 100 µM
GI50 [55]: 96.8 µM
TGI [55]: > 100 µM
GI50 [56]: 29.6 µM
TGI [56]: > 100 µM
GI50 [57]: > 100 µM
TGI [57]: > 100 µM
GI50 [58]: > 64.7 µM
TGI [58]: > 100 µM
GI50 [59]: 69.3 µM
TGI [59]: > 100 µM
